Reference: patent publication US11596639B2, “Substituted indole Mcl-1 inhibitors” (Vanderbilt University, priority 2016, dated 2023)

Legend:
[1] = target: Mcl-1 (Homo sapiens (Human), UniProt Q07820); assay: TR-FRET binding assay, FITC-Bak peptide and MBP-tagged Mcl-1; settings: read-out: Ki for Inhibition of Mcl-1 by TR-FRET assay
Description: Compounds are diluted in DMSO in a 16-point, semilog serial dilution scheme. […] The plate was mixed and incubated for 3 hours at room temperature. […] TR-FRET signal is plotted and IC50 and Ki values are calculated in the same manner as the fluorescence polarization anisotropy based competition assays.

[2] = system: H929 human cancer cell lines; assay: Cellular viability / proliferation (Cell TiterGlo, 72 h); assay type: cell-based; settings: Homo sapiens, NCI-H929, 72 h, read-out: GI50 on cellular proliferation of H929 human cancer cell lines, H929 cells, 72 h, Cell TiterGlo, 10% FBS
Procedure, shortened: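 Compounds were added as 2-fold serial dilutions from 50 μM (final DMSO <1%) to H929 cells seeded 1,000 per well in 10% FBS medium one day earlier.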

Sequence of Mcl-1 (Q07820 172-327): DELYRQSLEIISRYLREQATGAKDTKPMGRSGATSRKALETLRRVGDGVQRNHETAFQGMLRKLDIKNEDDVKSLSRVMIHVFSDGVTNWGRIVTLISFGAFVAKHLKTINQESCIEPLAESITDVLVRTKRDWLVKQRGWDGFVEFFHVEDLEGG

Cc1cc(OCCCc2c3n(c4c(-c5c(C)nn(C)c5C)c(Cl)ccc24)[C@H](C)CN(c2cn(C[C@@H]4CCCN4C)c4ccc(C(=O)O)cc24)C3=O)cc(C)c1Cl [Example 690, 3-((R)-7-chloro-10-(3-(4-chloro-3,5-dimethylphenoxy)propyl)-4-methyl-1-oxo-6-(1,3,5-trimethyl-1H-pyrazol-4-yl)-3,4-dihydropyrazino[1,2-a]indol-2(1H)-yl)-1-(((S)-1-methylpyrrolidin-2-yl)methyl)-1H-indole-5-carboxylic acid]
Ki [1]: 0.26 nM | GI50 [2]: 330 nM

Cc1cc(N2C[C@@H](C)n3c(c(CCCOc4cc(C)c(Cl)c(C)c4)c4ccc(Cl)c(-c5c(C)nn(C)c5C)c43)C2=O)c2c(c1)cc(C(=O)O)n2Cc1cccc(N2CCN(C)CC2)n1 [Example 516, (R)-7-(7-Chloro-10-(3-(4-chloro-3,5-dimethylphenoxy)propyl)-4-methyl-1-oxo-6-(1,3,5-trimethyl-1H-pyrazol-4-yl)-3,4-dihydropyrazino[1,2-a]indol-2(1H)-yl)-5-methyl-1-((6-(4-methylpiperazin-1-yl)pyridin-2-yl)methyl)-1H-indole-2-carboxylic acid]
Ki [1]: < 0.2 nM | GI50 [2]: 330 nM

COCCOCCn1c(C(=O)O)cc2cc(C)cc(N3C[C@@H](C)n4c(c(CCCOc5cc(C)c(Cl)c(C)c5)c5ccc(Cl)c(-c6c(C)ncnc6C)c54)C3=O)c21 [Example 635, (R)-7-(7-chloro-10-(3-(4-chloro-3,5-dimethylphenoxy)propyl)-6-(4,6-dimethylpyrimidin-5-yl)-4-methyl-1-oxo-3,4-dihydropyrazino[1,2-a]indol-2(1H)-yl)-1-(2-(2-methoxyethoxy)ethyl)-5-methyl-1H-indole-2-carboxylic acid]
Ki [1]: < 0.2 nM | GI50 [2]: < 200 nM

Cc1cc(OCCCc2c3n(c4c(-c5c(C)nn(C)c5C)c(Cl)ccc24)[C@H](C)CN(c2cc(OCC4CC4)cc4cc(C(=O)O)n(C)c24)C3=O)cc(C)c1Cl [Example 485, (R)-7-(7-Chloro-10-(3-(4-chloro-3,5-dimethylphenoxy)propyl)-4-methyl-1-oxo-6-(1,3,5-trimethyl-1H-pyrazol-4-yl)-3,4-dihydropyrazino[1,2-a]indol-2(1H)-yl)-5-(cyclopropylmethoxy)-1-methyl-1H-indole-2-carboxylic acid]
Ki [1]: 0.35 nM | GI50 [2]: 410 nM

Cc1cc(OCCCc2c3n(c4c(-c5c(C)nn(C)c5C)c(Cl)ccc24)[C@H](C)CN(c2cn(CCCl)c4ccc(-c5ncn(C)n5)cc24)C3=O)cc(C)c1Cl [Example 529, (R)-7-Chloro-10-(3-(4-chloro-3,5-dimethylphenoxy)propyl)-2-(1-(2-chloroethyl)-5-(1-methyl-1H-1,2,4-triazol-3-yl)-1H-indol-3-yl)-4-methyl-6-(1,3,5-trimethyl-1H-pyrazol-4-yl)-3,4-dihydropyrazino[1,2-a]indol-1(2H)-one]
Ki [1]: < 0.2 nM | GI50 [2]: 520 nM

Cc1cc(OCCCc2c3n(c4c(-c5c(C)nn(C)c5C)c(Cl)ccc24)[C@H](C)CN(c2cc(CN4CCN(C)CC4)cc4cc(C(=O)O)n(C)c24)C3=O)cc(C)c1Cl [Example 544, (R)-7-(7-Chloro-10-(3-(4-chloro-3,5-dimethylphenoxy)propyl)-4-methyl-1-oxo-6-(1,3,5-trimethyl-1H-pyrazol-4-yl)-3,4-dihydropyrazino[1,2-a]indol-2(1H)-yl)-1-methyl-5-((4-methylpiperazin-1-yl)methyl)-1H-indole-2-carboxylic acid]
Ki [1]: < 0.2 nM | GI50 [2]: 320 nM

CC(=O)N1CCN(C(=O)c2cc(N3C[C@@H](C)n4c(c(CCCOc5cc(C)c(Cl)c(C)c5)c5ccc(Cl)c(-c6c(C)nn(C)c6C)c54)C3=O)c3c(c2)cc(C(=O)O)n3C)CC1 [Example 629, (R)-5-(4-acetylpiperazine-1-carbonyl)-7-(7-chloro-10-(3-(4-chloro-3,5-dimethylphenoxy)propyl)-4-methyl-1-oxo-6-(1,3,5-trimethyl-1H-pyrazol-4-yl)-3,4-dihydropyrazino[1,2-a]indol-2(1H)-yl)-1-methyl-1H-indole-2-carboxylic acid]
Ki [1]: < 0.2 nM | GI50 [2]: 560 nM

Cc1cnc(-n2cnc(-c3ccc4c(c3)c(N3C[C@@H](C)n5c(c(CCCOc6cc(C)c(Cl)c(C)c6)c6ccc(Cl)c(-c7c(C)nn(C)c7C)c65)C3=O)cn4C)n2)nc1 [Example 700, (R)-7-Chloro-10-(3-(4-chloro-3,5-dimethylphenoxy)propyl)-4-methyl-2-(1-methyl-5-(1-(5-methylpyrimidin-2-yl)-1H-1,2,4-triazol-3-yl)-1H-indol-3-yl)-6-(1,3,5-trimethyl-1H-pyrazol-4-yl)-3,4-dihydropyrazino[1,2-a]indol-1(2H)-one]
Ki [1]: 0.73 nM | GI50 [2]: 380 nM

COc1cc(N2C[C@@H](C)n3c(c(CCCOc4cc(C)c(Cl)c(C)c4)c4ccc(Cl)c(-c5c(C)nn(C)c5C)c43)C2=O)c2c(c1)cc(C(=O)O)n2Cc1ccccn1 [Example 538, (R)-7-(7-Chloro-10-(3-(4-chloro-3,5-dimethylphenoxy)propyl)-4-methyl-1-oxo-6-(1,3,5-trimethyl-1H-pyrazol-4-yl)-3,4-dihydropyrazino[1,2-a]indol-2(1H)-yl)-5-methoxy-1-(pyridin-2-ylmethyl)-1H-indole-2-carboxylic acid]
Ki [1]: < 0.2 nM | GI50 [2]: < 200 nM

COc1ccc(N2C[C@@H](C)n3c(c(CCCOc4cc(C)c(Cl)c(C)c4)c4ccc(Cl)c(-c5c(C)nn(C)c5C)c43)C2=O)c2c1c(C(=O)O)cn2Cc1ccccn1 [Example 617, (R)-7-(7-chloro-10-(3-(4-chloro-3,5-dimethylphenoxy)propyl)-4-methyl-1-oxo-6-(1,3,5-trimethyl-1H-pyrazol-4-yl)-3,4-dihydropyrazino[1,2-a]indol-2(1H)-yl)-4-methoxy-1-(pyridin-2-ylmethyl)-1H-indole-3-carboxylic acid]
Ki [1]: < 0.2 nM | GI50 [2]: 440 nM

Cc1ccnc(Cn2c(C(=O)O)cc3cc(OCCN(C)C)cc(N4C[C@@H](C)n5c(c(CCCOc6cc(C)c(Cl)c(C)c6)c6ccc(Cl)c(-c7c(C)ncnc7C)c65)C4=O)c32)c1 [Example 584, (R)-7-(7-chloro-10-(3-(4-chloro-3,5-dimethylphenoxy)propyl)-6-(4,6-dimethylpyrimidin-5-yl)-4-methyl-1-oxo-3,4-dihydropyrazino[1,2-a]indol-2(1H)-yl)-5-(2-(dimethylamino)ethoxy)-1-((4-methylpyridin-2-yl)methyl)-1H-indole-2-carboxylic acid]
Ki [1]: < 0.2 nM | GI50 [2]: 1000 nM

Cc1cc(N2C[C@@H](C)n3c(c(CCCOc4cc(C)c(Cl)c(C)c4)c4ccc(Cl)c(-c5c(C)nn(C)c5C)c43)C2=O)c2c(c1)cc(C(=O)O)n2CCOC(C)C [Example 578, (R)-7-(7-chloro-10-(3-(4-chloro-3,5-dimethylphenoxy)propyl)-4-methyl-1-oxo-6-(1,3,5-trimethyl-1H-pyrazol-4-yl)-3,4-dihydropyrazino[1,2-a]indol-2(1H)-yl)-1-(2-isopropoxyethyl)-5-methyl-1H-indole-2-carboxylic acid]
Ki [1]: < 0.2 nM | GI50 [2]: 390 nM

Cc1cc(N2C[C@@H](C)n3c(c(CCCOc4cc(C)c(Cl)c(C)c4)c4ccc(Cl)c(-c5c(C)nn(C)c5C)c43)C2=O)c2c(c1)cc(C(=O)O)n2Cc1cccc(C#N)n1 [Example 557, (R)-7-(7-chloro-10-(3-(4-chloro-3,5-dimethylphenoxy)propyl)-4-methyl-1-oxo-6-(1,3,5-trimethyl-1H-pyrazol-4-yl)-3,4-dihydropyrazino[1,2-a]indol-2(1H)-yl)-1-((6-cyanopyridin-2-yl)methyl)-5-methyl-1H-indole-2-carboxylic acid]
Ki [1]: < 0.2 nM | GI50 [2]: 820 nM

COc1ccc(N2C[C@@H](C)n3c(c(CCCOc4cc(C)c(Cl)c(C)c4)c4ccc(Cl)c(-c5c(C)nn(C)c5C)c43)C2=O)c2c1cc(C(=O)O)n2Cc1cccc(C)n1 [Example 593, (R)-7-(7-chloro-10-(3-(4-chloro-3,5-dimethylphenoxy)propyl)-4-methyl-1-oxo-6-(1,3,5-trimethyl-1H-pyrazol-4-yl)-3,4-dihydropyrazino[1,2-a]indol-2(1H)-yl)-4-methoxy-1-((6-methylpyridin-2-yl)methyl)-1H-indole-2-carboxylic acid]
Ki [1]: < 0.2 nM | GI50 [2]: < 200 nM

C=Cc1cccc(Cn2c(C(=O)O)cc3cc(C)cc(N4C[C@@H](C)n5c(c(CCCOc6cc(C)c(Cl)c(C)c6)c6ccc(Cl)c(-c7c(C)nn(C)c7C)c65)C4=O)c32)n1 [Example 517, (R)-7-(7-Chloro-10-(3-(4-chloro-3,5-dimethylphenoxy)propyl)-4-methyl-1-oxo-6-(1,3,5-trimethyl-1H-pyrazol-4-yl)-3,4-dihydropyrazino[1,2-a]indol-2(1H)-yl)-5-methyl-1-((6-vinylpyridin-2-yl)methyl)-1H-indole-2-carboxylic acid]
Ki [1]: 0.36 nM | GI50 [2]: 760 nM

Cc1cc(OCCCc2c3n(c4c(-c5c(C)nn(C)c5C)c(Cl)ccc24)[C@H](C)CN(c2cc(Oc4ccccn4)cc4cc(C(=O)O)n(C)c24)C3=O)cc(C)c1Cl [Example 522, (R)-7-(7-Chloro-10-(3-(4-chloro-3,5-dimethylphenoxy)propyl)-4-methyl-1-oxo-6-(1,3,5-trimethyl-1H-pyrazol-4-yl)-3,4-dihydropyrazino[1,2-a]indol-2(1H)-yl)-1-methyl-5-(pyridin-2-yloxy)-1H-indole-2-carboxylic acid]
Ki [1]: 0.32 nM | GI50 [2]: 750 nM
